{"source": "patent US20230018765A1", "about": "“A 19-NOR C3,3-DISUBSTITUTED C21-N-PYRAZOLYL STEROID AND METHODS OF USE THEREOF” (Sage Therapeutics, Inc., priority 2019, published 2023)", "key": {"[1]": {"test_system": "subjects with MDD", "assay": "HAM-D course after a Compound 1 treatment cycle (response/remission at Day 15, HAM-D at Day 42)", "format": "in vivo, human"}, "[2]": {"test_system": "GABAA receptors", "assay": "modulation of GABAA receptors", "conditions": "synaptic and extrasynaptic GABAA receptors"}, "[3]": {"test_system": "adult patients diagnosed with MDD (MADRS total score ≥32 and a HAM-D total score ≥22)", "assay": "double-blind, randomized placebo-controlled Phase 3 study of Compound 1 in Major Depressive Disorder (efficacy by HAM-D total score, safety and tolerability)", "format": "in vivo, human", "conditions": "for overall incidence of patients who experienced AEs: 14-day treatment period and 28-day follow up, placebo 48.9%; for AE incidence: Fatigue: placebo 2.6%; for AE incidence: Sedation / subjects having treatment emergent AEs leading to study drug discontinuation: placebo 3.2%; for AE incidence: Dizziness: placebo 3.7%; for AE incidence: Somnolence: placebo 4.2%; for AE incidence: Nausea: placebo 4.7%; for AE incidence: Diarrhea: placebo 5.3%; for AE incidence: Headache: treatment period and 28-day follow up, placebo 7.4%", "procedure": "Compound 1 was evaluated in a double-blind, randomized placebo-controlled Phase 3 study in Major Depressive Disorder (MDD). The evaluated the efficacy, safety and pharmacokinetics of Compound 1 in adult patients diagnosed with MDD (MADRS total score ≥32 and a HAM-D total score ≥22).\nCompound 1 was administered to a patient, either in 20 mg daily doses once a day for 14 days or 30 mg once a day for 14 days."}, "[4]": {"test_system": "subjects with MDD", "assay": "Phase 2 study in subjects with MDD / previous clinical trials of Compound 1"}, "[5]": {"conditions": "among subjects achieving remission or response at Day 15, Day 42"}}}
{"smiles": "C[C@@]1(O)CC[C@H]2[C@H](CC[C@@H]3[C@@H]2CC[C@]2(C)[C@@H](C(=O)Cn4cc(C#N)cn4)CC[C@@H]32)C1", "note": "[Compound 1]", "values": [{"measurement": "subjects achieving remission or response at Day 15", "setting": "[1]; Day 15", "value": 78.6, "unit": "%"}, {"measurement": "subjects with HAM-D≥22 at Day 42", "setting": "[1]; [5]", "value": 6.1, "unit": "%"}, {"measurement": "subjects with a HAM-D score of 16 to 21 at Day 42", "setting": "[1]; [5]", "value": 18.2, "unit": "%"}, {"measurement": "mode of action at GABAA receptors", "setting": "[2]", "value": "positive allosteric modulator of GABAA receptors"}, {"measurement": "separation from placebo (HAM-D) of the 20 mg dose", "setting": "[3]; 20 mg once a day for 14 days", "value": "did not separate from placebo"}, {"measurement": "tolerability in the trial", "setting": "[3]; 20 mg or 30 mg once a day for 14 days", "value": "generally well tolerated"}, {"measurement": "overall incidence of patients who experienced AEs", "setting": "[3]; 20 mg", "value": 50.0, "unit": "%"}, {"measurement": "patients who reported SAEs during follow-up", "setting": "[3]; 20 mg, SAEs related to cocaine ingestion, Day 39", "value": "one"}, {"measurement": "AE incidence: Fatigue", "setting": "[3]; 20 mg", "value": 1.6, "unit": "%"}, {"measurement": "AE incidence: Sedation", "setting": "[3]; 20 mg", "value": 5.9, "unit": "%"}, {"measurement": "subjects having treatment emergent AEs leading to study drug discontinuation", "setting": "[3]; 20 mg", "value": 1.6, "unit": "%"}, {"measurement": "AE incidence: Dizziness", "setting": "[3]; 20 mg", "value": 7.4, "unit": "%"}, {"measurement": "AE incidence: Somnolence", "setting": "[3]; 20 mg", "value": 5.9, "unit": "%"}, {"measurement": "AE incidence: Nausea", "setting": "[3]; 20 mg", "value": 5.3, "unit": "%"}, {"measurement": "AE incidence: Diarrhea", "setting": "[3]; 20 mg", "value": 5.9, "unit": "%"}, {"measurement": "AE incidence: Headache", "setting": "[3]; 20 mg", "value": 11.2, "unit": "%"}, {"measurement": "onset of effect (HAM-D vs placebo)", "setting": "[3]; 30 mg (n=166)", "value": "beginning at Day 3"}, {"measurement": "LS Mean Difference from placebo, HAM-D total score, Day 3", "setting": "[3]; 30 mg (n=166) vs placebo (n=157), Day 3, p=0.016", "value": "−1.6"}, {"measurement": "AE incidence: Diarrhea", "setting": "[3]; 30 mg (printed 30 rug)", "value": 6.3, "unit": "%"}, {"measurement": "reduction in depressive symptoms in the HAM-D total score at Day 15 (primary endpoint)", "setting": "[3]; 30 mg once a day for 14 days, Day 15, placebo 11.2", "value": 12.6}, {"measurement": "LS Mean Difference, HAM-D total score at Day 15, patients with measurable drug concentrations and HAM-D≥24", "setting": "[3]; 30 mg vs placebo, post-hoc, p=0.017", "value": "−2.6"}, {"measurement": "LS Mean Difference, HAM-D total score at Day 15, patients with HAM-D≥24", "setting": "[3]; 30 mg vs placebo, post-hoc, p=0.032", "value": "−2.3"}, {"measurement": "LS Mean Difference, HAM-D total score at Day 15, patients with measurable drug concentrations", "setting": "[3]; 30 mg vs placebo, post-hoc, p=0.048", "value": "−1.8"}, {"measurement": "overall incidence of patients who experienced AEs", "setting": "[3]; 30 mg", "value": 54.2, "unit": "%"}, {"measurement": "LS Mean Difference from placebo, HAM-D total score, Day 8", "setting": "[3]; 30 mg, Day 8, p=0.008", "value": "−2.1"}, {"measurement": "LS Mean Difference from placebo, HAM-D total score, Day 12", "setting": "[3]; 30 mg, Day 12, p=0.018", "value": "−2.1"}, {"measurement": "LS Mean Difference from placebo, HAM-D total score, Day 15", "setting": "[3]; 30 mg, Day 15, p=0.115", "value": "−1.4"}, {"measurement": "LS Mean Difference from placebo, HAM-D total score, Day 42", "setting": "[3]; 30 mg, Day 42, p=0.807", "value": "−0.5"}, {"measurement": "Change from baseline in HAM-D total score at Day 42", "setting": "[3]; 30 mg, Day 42, placebo −11.7", "value": "−11.9"}, {"measurement": "AE incidence: Fatigue", "setting": "[3]; 30 mg", "value": 6.8, "unit": "%"}, {"measurement": "AE incidence: Sedation", "setting": "[3]; 30 mg", "value": 4.7, "unit": "%"}, {"measurement": "subjects having treatment emergent AEs leading to study drug discontinuation", "setting": "[3]; 30 mg", "value": 2.1, "unit": "%"}, {"measurement": "AE incidence: Dizziness", "setting": "[3]; 30 mg", "value": 5.7, "unit": "%"}, {"measurement": "AE incidence: Somnolence", "setting": "[3]; 30 mg", "value": 6.8, "unit": "%"}, {"measurement": "AE incidence: Nausea", "setting": "[3]; 30 mg", "value": 3.6, "unit": "%"}, {"measurement": "Change from baseline in HAM-D total score at Day 15, patients with HAM-D≥24", "setting": "[3]; 30 mg, post-hoc, n=124, placebo −11.4", "value": "−13.7"}, {"measurement": "Change from baseline in HAM-D total score at Day 15, patients with measurable drug concentrations", "setting": "[3]; 30 mg, post-hoc, n=151, placebo −11.2", "value": "−13.0"}, {"measurement": "Change from baseline in HAM-D total score at Day 15, patients with measurable drug concentrations and HAM-D≥24", "setting": "[3]; 30 mg, post-hoc, placebo −11.4", "value": "−14.0"}, {"measurement": "patients who experienced serious adverse events (SAEs) during treatment", "setting": "[3]; 30 mg, suicide attempt Day 5, bile duct stone after Day 2", "value": "Two"}, {"measurement": "patients who reported SAEs during follow-up", "setting": "[3]; 30 mg, syncope and associated injuries, Day 28", "value": "one"}, {"measurement": "AE incidence: Headache", "setting": "[3]; 30 mg", "value": 6.3, "unit": "%"}, {"measurement": "durability of improvements in depressive symptoms, double-blind portion", "setting": "[3]; all treatment groups, through Day 42", "value": "sustained in all treatment groups through Day 42"}, {"measurement": "AEs of loss of consciousness", "setting": "[3]; any group", "value": "no ABs of loss of consciousness"}, {"measurement": "suicidal ideation or suicidal behavior by Columbia Suicide Severity Rating Scale (C-SSRS)", "setting": "[3]; compared to baseline", "value": "no signal fir increased suicidal ideation or suicidal behavior"}, {"measurement": "durability of improvement in depressive symptoms, long-term follow-up", "setting": "[3]; patients who completed long-term follow-up up to 6 months, preliminary data", "value": "maintenance of improvement in depressive symptoms"}, {"measurement": "efficacy in a Phase 2 study in subjects with MDD", "setting": "[4]; 30 mg per day", "value": "efficacious"}, {"measurement": "tolerability in a Phase 2 study in subjects with MDD", "setting": "[4]; 30 mg per day", "value": "well-tolerated"}, {"measurement": "adverse effect in previous clinical trials, morning administration", "setting": "[4]; administered in the morning", "value": "sedation/somnolence observed"}, {"measurement": "tolerability in previous clinical trials, evening administration", "setting": "[4]; given in the evening", "value": "improved tolerability"}]}
